Measured values as given in patent US20250346585A1 (Alexion Pharmaceuticals, Inc., priority 2022, published 2025).

Molecular target: Human complement C1s enzyme (Homo sapiens (Human), UniProt P09871)
Experiment: Human C1s enzyme assay
Type: biochemical
Settings: Human C1s enzyme assay of Example 3; read-out: IC50 (Stars)
Procedure, shortened: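 IC50 derived by nonlinear regression of rate versus concentration, with rate taken from A405 kinetics (30 s intervals, 30 min) after adding 100 μM each Z-L-Lys-SBzl and DTNB. C1s from human serum, 1.16 nM, exposed to compound for 5 min at RT beforehand; buffer 50 mM Tris, 1 M NaCl, pH 7.5.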

Human complement C1s enzyme, sequence (P09871 438-688 limits assumed): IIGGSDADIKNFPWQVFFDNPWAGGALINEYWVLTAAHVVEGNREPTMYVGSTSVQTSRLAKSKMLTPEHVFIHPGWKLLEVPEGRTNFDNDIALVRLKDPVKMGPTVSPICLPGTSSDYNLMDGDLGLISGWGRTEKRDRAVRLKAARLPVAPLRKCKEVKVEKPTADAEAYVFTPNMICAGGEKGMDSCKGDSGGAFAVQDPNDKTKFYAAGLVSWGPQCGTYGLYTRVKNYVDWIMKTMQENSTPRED
Human complement C1s enzyme, sequence (P09871 16-437 partner limits assumed): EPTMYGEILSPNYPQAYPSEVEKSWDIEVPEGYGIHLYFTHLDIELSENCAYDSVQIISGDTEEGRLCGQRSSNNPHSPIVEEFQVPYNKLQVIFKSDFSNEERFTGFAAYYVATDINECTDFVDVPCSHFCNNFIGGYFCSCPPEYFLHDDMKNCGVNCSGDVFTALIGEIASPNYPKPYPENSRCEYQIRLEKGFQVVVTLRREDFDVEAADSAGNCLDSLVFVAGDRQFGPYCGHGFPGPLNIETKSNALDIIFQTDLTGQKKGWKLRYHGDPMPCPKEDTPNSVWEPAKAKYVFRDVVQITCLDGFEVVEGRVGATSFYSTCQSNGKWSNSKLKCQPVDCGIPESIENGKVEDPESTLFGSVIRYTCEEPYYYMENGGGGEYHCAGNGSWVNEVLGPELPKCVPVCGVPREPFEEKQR

Row | IC50 [µM] | SMILES
1 | < 0.1 | C[C@@H](NC(=O)[C@@H]1CC2(CN1C(=O)CNC(=O)c1ccc3c(c1)-c1ccccc1C3(F)F)OCCO2)c1cc(-c2ncc[nH]2)cs1 [Compound 87, (S)—N—((R)-1-(4-(1H-imidazol-2-yl)thiophen-2-yl)ethyl)-7-((9,9-difluoro-9H-fluorene-3-carbonyl)glycyl)-1,4-dioxa-7-azaspiro[4.4]nonane-8-carboxamide]
2 | < 0.1 | N=C(N)c1csc(CNC(=O)[C@@H]2CC3(CN2C(=O)CNC(=O)c2ccc4c(c2)-c2ccccc2C4=O)OCCO3)c1 [Compound 88, (S)—N-((4-carbamimidoylthiophen-2-yl)methyl)-7-((9-oxo-9H-fluorene-3-carbonyl)glycyl)-1,4-dioxa-7-azaspiro[4.4]nonane-8-carboxamide]
3 | < 0.1 | C[C@H](O)[C@H](O)[C@@H](O)[C@@H](O)CNCC(=O)NCCOC[C@@]12C[C@@H]1N(C(=O)CNC(=O)c1ccc3c(c1)-c1ccccc1C3(F)F)[C@H](C(=O)N[C@H](C)c1cc(C(=N)N)cs1)C2 [Compound 89, (1S,3S,5R)—N—((R)-1-(4-carbamimidoylthiophen-2-yl)ethyl)-2-((9,9-difluoro-9H-fluorene-3-carbonyl)glycyl)-5-((2-(2-(((2S,3S,4S,5S)-2,3,4,5-tetrahydroxyhexyl)amino)acetamido)ethoxy)methyl)-2-azabicyclo[3.1.0]hexane-3-carboxamide]
4 | < 0.1 | C[C@@H](NC(=O)[C@@H]1CC2(CN1C(=O)CNC(=O)c1ccc(-c3ccccc3)cc1)OCCO2)c1cc(C(=N)N)cs1 [Compound 90, (S)-7-(([1,1′-biphenyl]-4-carbonyl)glycyl)-N—((R)-1-(4-carbamimidoylthiophen-2-yl)ethyl)-1,4-dioxa-7-azaspiro[4.4]nonane-8-carboxamide]
5 | > 1 | C[C@@H](NC(=O)[C@@H]1CC2(CN1C(=O)CNC(=O)c1ccc3c(c1)-c1ccccc1C3(F)F)OCCO2)c1cc(-c2cncnc2)cs1 [Compound 91, (S)-7-((9,9-difluoro-9H-fluorene-3-carbonyl)glycyl)-N—((R)-1-(4-(pyrimidin-5-yl)thiophen-2-yl)ethyl)-1,4-dioxa-7-azaspiro[4.4]nonane-8-carboxamide]
6 | > 1 | C[C@@H](NC(=O)[C@@H]1CC2(CN1C(=O)CNC(=O)c1ccc3c(c1)-c1ccccc1C3(F)F)OCCO2)c1cc(-c2nn[nH]n2)cs1 [Compound 92, (S)—N—((R)-1-(4-(2H-tetrazol-5-yl)thiophen-2-yl)ethyl)-7-((9,9-difluoro-9H-fluorene-3-carbonyl)glycyl)-1,4-dioxa-7-azaspiro[4.4]nonane-8-carboxamide]
7 | < 0.1 | C[C@@H](NC(=O)[C@@H]1C[C@H](C2CCCCC2)CN1C(=O)CNC(=O)c1ccc(Oc2ccc(F)cc2)cc1)c1cc(C(=N)N)cs1 [Compound 93, (2S,4R)—N—((R)-1-(4-carbamimidoylthiophen-2-yl)ethyl)-4-cyclohexyl-1-((4-(4-fluorophenoxy)benzoyl)glycyl)pyrrolidine-2-carboxamide]
8 | < 0.1 | C[C@@H](NC(=O)[C@@H]1CC2(CN1C(=O)CNC(=O)c1ccc3c(c1)-c1ccccc1C3(C)C)OCCO2)c1cc(C(=N)N)cs1 [Compound 94, (S)—N—((R)-1-(4-carbamimidoylthiophen-2-yl)ethyl)-7-((9,9-dimethyl-9H-fluorene-3-carbonyl)glycyl)-1,4-dioxa-7-azaspiro[4.4]nonane-8-carboxamide]
9 | < 0.1 | C[C@@H](NC(=O)[C@@H]1CC2(CN1C(=O)CNC(=O)c1ccc3c(c1)-c1ccccc1-3)OCCO2)c1cc(C(=N)N)cs1 [Compound 95, (S)-7-((biphenylene-2-carbonyl)glycyl)-N—((R)-1-(4-carbamimidoylthiophen-2-yl)ethyl)-1,4-dioxa-7-azaspiro[4.4]nonane-8-carboxamide]
10 | 0.1 to 1 | C[C@@H](NC(=O)[C@@H]1CC2(CN1C(=O)CNC(=O)c1ccc3c(c1)-c1ccccc1C3(F)F)OCCO2)c1cc(-c2c[nH]cn2)cs1 [Compound 96, (S)—N—((R)-1-(4-(1H-imidazol-4-yl)thiophen-2-yl)ethyl)-7-((9,9-difluoro-9H-fluorene-3-carbonyl)glycyl)-1,4-dioxa-7-azaspiro[4.4]nonane-8-carboxamide]
